Reference: patent publication US5874078A, “Reagent composition of glutamate dehydrogenase from pseudomonas” (Toyo Boseki Kabushiki Kaisha, priority 1994, dated 1999)
Where two headings read alike, the source gives them in different places.

Legend:
[1] = system: NAD+-dependent glutamate dehydrogenase (EC 1.4.1.2) from Clostridium sp. SB4; settings: read-out: Km Value to NH3; Table 3; The Enzymes, 3rd Ed. 11, 293 (1975); cited from earlier work
[2] = system: glutamate dehydrogenase from Pseudomonas sp. 433-3 (FERM P-14092); assay: Km values of glutamate dehydrogenase; type: biochemical
Procedure: The above reaction mixture solution (2.9 ml) is taken in a cuvette and subjected to a preliminary heating at 30° C. for about five minutes. Then the reaction is initiated by adding 0.1 ml of an enzyme solution thereto, decrease in absorbance of 340 nm in a spectrophotometer controlled at 30° C. is recorded for 3-4 minutes and, out of its linear portion, the decrease in the absorbance per minute is determined. A blank test is carried out according to the same operations as above except that 0.1M Tris-HCl buffer (pH: 8.3) is added instead of the enzyme solution. […]
The above reaction mixture solution (2.9 ml) was taken in a cuvette and subjected to a preliminary heating at 30° C. for about five minutes. Then the reaction was initiated by adding 0.1 ml of an enzyme solution thereto, […] at 30° C. was recorded for 3-4 minutes and, out of its linear portion, the decrease in the absorbance per minute was determined. A blank test was carried out according to the same operations as above except that 0.1M Tris-HCl buffer (pH: 9.0) was added instead of the enzyme solution.

[3] = target: NAD+-dependent glutamate dehydrogenase (EC 1.4.1.2) from Peptococcus aerogene (Peptoniphilus asaccharolyticus, UniProt P28997); settings: read-out: Km Value to NH3; Table 3; Can. J. Microbiol. 18, 881 (1972); cited from earlier work
NAD+-dependent glutamate dehydrogenase (EC 1.4.1.2) from Peptococcus aerogene, sequence (P28997 whole entry): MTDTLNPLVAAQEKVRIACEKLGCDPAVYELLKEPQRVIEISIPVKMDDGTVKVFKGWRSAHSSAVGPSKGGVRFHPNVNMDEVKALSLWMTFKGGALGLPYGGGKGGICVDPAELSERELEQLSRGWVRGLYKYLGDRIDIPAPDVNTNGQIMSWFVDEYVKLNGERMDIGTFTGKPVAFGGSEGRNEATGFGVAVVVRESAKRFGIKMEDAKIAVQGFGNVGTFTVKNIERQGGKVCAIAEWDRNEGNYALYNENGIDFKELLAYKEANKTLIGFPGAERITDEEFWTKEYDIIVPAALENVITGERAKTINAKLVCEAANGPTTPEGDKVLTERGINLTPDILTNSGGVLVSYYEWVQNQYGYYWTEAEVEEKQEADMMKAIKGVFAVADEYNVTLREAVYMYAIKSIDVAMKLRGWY

[4] = system: NAD+-dependent glutamate dehydrogenase (EC 1.4.1.2) from Synechocystis sp.; settings: read-out: Km Value to NH3; Table 3; FEBS Lett. 285, 35 (1991); cited from earlier work
[5] = system: glutamate dehydrogenase from Pseudomonas sp. 433-3 (FERM P-14092); assay: Activation by ADP (reductive amination activity); type: biochemical; settings: pH 8.3, 30° C.
Procedure: (§1) A method of measuring an activity of the glutamate dehydrogenase of the present invention by means of a reductive amination will be as follows.
(§2) The above reaction mixture solution (2.9 ml) is taken in a cuvette and subjected to a preliminary heating at 30° C. for about five minutes. Then the reaction is initiated by adding 0.1 ml of an enzyme solution thereto, decrease in absorbance of 340 nm in a spectrophotometer controlled at 30° C. is recorded for 3-4 minutes and, out of its linear portion, the decrease in the absorbance per minute is determined. A blank test is carried out according to the same operations as above except that 0.1M Tris-HCl buffer (pH: 8.3) is added instead of the enzyme solution. The way of expression of an activity of the glutamate dehydrogenase is in such a manner that the amount of the enzyme by which 1 micromole of NADH is oxidized per minute under the above-mentioned conditions is defined as one unit (U).
(§3) ADP was added to the reagent for measuring the activity of glutamate dehydrogenase of the present invention (a reductive amination) to make it 2.5 mM and the resulting activity was compared with that where nothing was added.

[6] = target: T1, Bovine Liver CLDH (glutamate dehydrogenase derived from bovine liver) (Bos taurus, UniProt P00366); assay: Activation by ADP (reductive amination activity); type: biochemical; settings: 2.5 mM ADP, pH 8.3, 30° C., read-out: activity with 2.5 mM ADP (without ADP = 100%)
T1 construct: Bovine Liver CLDH; from tissue; host or cells: bovine liver
T1 sequence (P00366 58-558): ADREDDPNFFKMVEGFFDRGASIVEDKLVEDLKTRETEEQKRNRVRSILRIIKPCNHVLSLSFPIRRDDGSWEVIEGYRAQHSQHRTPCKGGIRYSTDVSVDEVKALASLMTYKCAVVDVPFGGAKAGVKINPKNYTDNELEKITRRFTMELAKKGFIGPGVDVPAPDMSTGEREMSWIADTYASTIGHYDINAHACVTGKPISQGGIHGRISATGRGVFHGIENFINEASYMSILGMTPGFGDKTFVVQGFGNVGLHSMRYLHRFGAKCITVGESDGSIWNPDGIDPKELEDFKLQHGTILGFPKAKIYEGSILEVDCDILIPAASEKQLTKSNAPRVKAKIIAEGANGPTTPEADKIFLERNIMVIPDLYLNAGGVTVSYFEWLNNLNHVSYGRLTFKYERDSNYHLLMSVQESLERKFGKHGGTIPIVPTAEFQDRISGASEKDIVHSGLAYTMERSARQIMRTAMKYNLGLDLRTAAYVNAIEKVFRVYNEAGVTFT
Procedure: as §1, §2, §3

SMILES: N [ammonia]
- Km [1]: 0.32 mM
- Km ([2]; Table 3, This Invention, read-out: Km Value to NH3): 8.5 mM
- Km ([2]; read-out: Km value to ammonia): 8.5 mM
- Km [3]: 18.4 mM
- Km [4]: 4.5 mM

SMILES: Nc1ncnc2c1ncn2[C@@H]1O[C@H](COP(=O)(O)OP(=O)(O)O)[C@@H](O)[C@H]1O [ADP]
- activity with 2.5 mM ADP (without ADP = 100%) [5]: 100%
- activity at 2500 µM [6]: 145%

SMILES: NC(=O)c1ccc[n+]([C@@H]2O[C@H](COP(=O)(O)OP(=O)([O-])OC[C@H]3O[C@@H](n4cnc5c(N)ncnc54)[C@H](O)[C@@H]3O)[C@@H](O)[C@H]2O)c1 [NAD^+]
- Km ([2]; read-out: Km value to NAD^+): 0.1 mM

SMILES: N[C@@H](CCC(=O)O)C(=O)O [L-glutamic acid]
- Km ([2]; read-out: Km value to L-glutamic acid): 17 mM

SMILES: NC(=O)C1=CN([C@@H]2O[C@H](COP(=O)(O)OP(=O)(O)OC[C@H]3O[C@@H](n4cnc5c(N)ncnc54)[C@H](O)[C@@H]3O)[C@@H](O)[C@H]2O)C=CC1 [NADH]
- Km ([2]; read-out: Km value to NADH): 0.19 mM
